The source of these data is patent US9475843B2 (Zhejiang University, priority 2015, dated 2016).

Values after ≈ are worked out from the molar mass of the structure shown. Like-named read-outs stand apart in the source and are kept apart here. No end group written: not given here.

In data set [1] the test system is S. choleraesuis CMCC50020.
Excerpt: The above results are average of 6 independent experimental repeats.
In a further data set the test system is E. coli K 88. The method, then:
(§1) Bacteria was inoculated on Mueller-Hinton (MH) agar plate, the inoculated agar plate was inverted to grow single colonies. A single colony was inoculated in 3 mL MH broth, and the broth was cultured with constant shaking at constant temperature until turbid. 30 μL of bacterial suspension was then transferred to 3 mL of fresh MH broth, and the broth was cultured with shaking at constant temperature until OD600≈0.5. 10 μL bacterial suspension was transferred to 10 mL fresh MH broth and then vortexed to mix well. […] In addition, 100 μL of bacterial suspension was added to a well as positive control, and 100 μL of MH broth was added to a well as negative control. Each testing condition and controls was performed with 6 repeats.
(§2) The aforementioned antimicrobial peptides were used as controls in the same experiments described in the second, third, fourth and fifth embodiments.

The test system of a further data set is S. typhimurium CMCC50013. The method, then: as §1, §2
For a further data set, the system named is E. coli EPEC O44:K74. The protocol: as §1, §2
A further data set relates to E. coli EPEC O144:K26. The method, then:
as §1, §2

The subject of a further data set is E. coli K 12. The method, then:
as §1, §2

The test system of a further data set is S. enteritidis CMCC50041. The protocol:
as §1, §2

The subject of the next data set is E. coli EPEC O78:K80. The method, then:
as §1, §2

In the next data set the test system is P. aeruginosa CMCC27853. The protocol:
as §1, §2

The next data set deals with E. coli ATCC25922. The protocol:
as §1, §2

The subject of a further data set is S. aureus ATCC25923. The method, then: as §1, §2
A further data set concerns S. epidermidis ATCC12228. The method, then: as §1, §2
Data set [2] has as its system Porcine macrophage cells (3D4/2 cell line). Briefly: LPS-induced inflammation in porcine macrophages (cytokine mRNA). The data set is classed as cell-based. The settings on record: FIG. 5. The method, then:
Porcine macrophage cells (3D4/2 cell line) were cultured on RPMI-1640 medium with 10% fetal bovine serum, at 37° C. in a 5% CO2 cell incubator, until the cells formed a monolayer with about 80-90% confluency. The cells were counted and plated. The cells were seeded to a 6-well plate at 1×10^6/well, RPMI-1640 complete medium was added, and the cells were cultured to 80% confluency. Then the medium was replaced by fresh serum-free RPMI-1640 medium (2 mL). […] Each group of experiments was repeated for six replications. After incubation for 24 hrs, cells were collected and total RNA was extracted using Trizol. cDNA was obtained by reverse transcription. Relative mRNA expression of IL-6, IL-8 and IL-22 was detected. The relative mRNA expression of IL-22, IL-8 and IL-6 were measured by quantitative fluorescence method. GAPDH gene was used as a internal reference gene.

The test system of another data set is porcine erythrocytes. The protocol: Blood was collected from porcine vena cava with heparin added, and mixed with RPMI1640 medium at a volume ratio of 1:1. After centrifuging with FICOLL-PAQUE™, circular and milky peripheral blood mononuclear cells (PMBCs) were drawn for later use, and erythrocytes at the bottom were collected. The erythrocytes were washed with 1×PBS until the supernatant was colorless. Then the washed erythrocytes were diluted 90-fold (1:89) with 1×PBS to determine hemolysis activity.
Triton X-100 (final concentration 1%) was used as positive control, and 10 uL 1×PBS was used as negative control. Each group was performed with 6 replications. Cells were cultured for 24 hrs at 37° C. in a cell culture incubator, and followed by centrifugation at 1500 rpm for 20 min. Then supernatant was transferred to a new 96-well plate to measure the values of OD at 414 nm and 546 nm using a microplate reader, and ΔOD was calculated. The formula for calculating hemolysis ratio is as follows: hemolysis ratio (%)=100%*(ΔOD treatment group−ΔOD negative control)/(ΔOD positive control−ΔOD negative control).
as §2

Data set [3] concerns porcine peripheral mononuclear cells. Conditions: porcine PBMCs, peptide ≦256 μg/mL, 24 hrs.
Description: Purified PBMCs were diluted to 1×10^6 cells/mL, and cells were seeded with 90 uL per well in a 96-well plate. Further, background control well (100 μL RMPI1640 medium), low level control well (90 μL cell culture+10 μL PBS), and high level control well (90 μL cell culture+10 μL 20% Triton X-100) were also prepared. The 96-well plate was cultured at 37° C. for 2 hrs in a 5% CO2 incubator. […] Each group of experiment (each concentration) was repeated for six replications. After culturing for 24 hrs, 10 μL TritonX-100 (20%) was added to each positive control well, and mixed by pipetting. The plate was further incubated for 15 min. After culturing, the cells were centrifuged at 1500 rpm for 10 min. 60 μL of supernatant was drawn carefully from the center of each well and transferred to corresponding wells of a transparent new 96-well plate. 30 uL of LDH diluent was added to each well. The plate was cultured at room temperature for 30 min with vibration in a dark environment. OD values were recorded at 492 nm and 900 nm using a microplate reader for calculating ΔOD value. […]

What is called MIC is the lowest concentration that inhibits growth of the organism. High values mean weaker potency, low ones greater potency. With SWLSKTAKKLENSAKKRIAIAIQGGPR [CP-1], the MIC in data set [1] (CMCC50020, 24 h) was found to be 8 µg/mL; in the data set with E. coli K 88 (K 88, 24 h), 4 µg/mL; in the data set with S. typhimurium CMCC50013 (CMCC50013, 24 h), 8 µg/mL; in the data set with E. coli EPEC O44:K74 (EPEC O44:K74, 24 h), 32 µg/mL; with E. coli EPEC O144:K26 (EPEC O144:K26, 24 h), 128 µg/mL; in the data set with E. coli K 12 (K 12, 24 h) it was 8 µg/mL. Also, the MIC in the data set with S. enteritidis CMCC50041 (CMCC50041, 24 h) worked out at 16 µg/mL; against E. coli EPEC O78:K80 (EPEC O78:K80, 24 h) it was 16 µg/mL; against P. aeruginosa CMCC27853 (CMCC27853, 24 h) it was 16 µg/mL; in the data set with E. coli ATCC25922 (ATCC25922, 24 h), 4 µg/mL; with S. aureus ATCC25923 (ATCC25923, 24 h), 128 µg/mL; in the data set with S. epidermidis ATCC12228 (ATCC12228, 24 h), 128 µg/mL. Further, the “effect on LPS-induced inflammation” value in data set [2] is “no effects”.
With `CC(C)C[C@H](NC(=O)[C@H](CCCNC(=N)N)NC(=O)CNC(=O)CNC(=O)[C@@H](N)CCCNC(=N)N)C(=O)N[C@H]1CSSC[C@@H](C(=O)N[C@H](C(=O)NCC(=O)N[C@@H](CCCNC(=N)N)C(N)=O)C(C)C)NC(=O)[C@H](C(C)C)NC(=O)[C@@H]2CSSC[C@H](NC(=O)[C@H](Cc3ccc(O)cc3)NC1=O)C(=O)N[C@@H](CCCNC(=N)N)C(=O)N[C@@H](CCCNC(=N)N)C(=O)N[C@@H](CCCNC(=N)N)C(=O)N[C@@H](Cc1ccccc1)C(=O)N2` [PG-1], the MIC in data set [1] (CMCC50020, 24 h) was 4 µg/mL (≈ 1.86 µM); in the data set with E. coli K 88 (K 88, 24 h), 8 µg/mL (≈ 3.71 µM); against S. typhimurium CMCC50013 (CMCC50013, 24 h), 4 µg/mL (≈ 1.86 µM); against E. coli EPEC O44:K74 (EPEC O44:K74, 24 h) it was 32 µg/mL (≈ 14.8 µM); against E. coli EPEC O144:K26 (EPEC O144:K26, 24 h), 64 µg/mL (≈ 29.7 µM); with E. coli K 12 (K 12, 24 h) it was 8 µg/mL (≈ 3.71 µM). The MIC is 16 µg/mL (≈ 7.42 µM) in the data set with S. enteritidis CMCC50041 (CMCC50041, 24 h); 16 µg/mL (≈ 7.42 µM) in the data set with E. coli EPEC O78:K80 (EPEC O78:K80, 24 h); 8 µg/mL (≈ 3.71 µM) in the data set with P. aeruginosa CMCC27853 (CMCC27853, 24 h); 4 µg/mL (≈ 1.86 µM) against E. coli ATCC25922 (ATCC25922, 24 h); 2 µg/mL (≈ 0.928 µM) with S. aureus ATCC25923 (ATCC25923, 24 h); 4 µg/mL (≈ 1.86 µM) against S. epidermidis ATCC12228 (ATCC12228, 24 h). The “hemolysis activity (compared with WY-21)” value in the data set with porcine erythrocytes (FIG. 4) is recorded as “higher than WY-21”.
Turning to VKFFRKLKKSVKEKIGKEFKR [WY-21], the MIC in [1] (S. choleraesuis CMCC50020, 24 hrs at 37° C., MH broth) was 16 µg/mL; against E. coli K 88 (E. coli K 88, 24 hrs at 37° C., MH broth) it was 8 µg/mL; in the data set on S. typhimurium CMCC50013 (S. typhimurium CMCC50013, 24 hrs at 37° C., MH broth) it was 16 µg/mL; with E. coli EPEC O44:K74 (E. coli EPEC O44:K74, 24 hrs at 37° C., MH broth), 8 µg/mL; against E. coli EPEC O144:K26 (E. coli EPEC O144:K26, 24 hrs at 37° C., MH broth), 16 µg/mL; against E. coli K 12 (E. coli K 12, 24 hrs at 37° C., MH broth), 4 µg/mL. Besides, the MIC came out at 64 µg/mL in the data set with S. enteritidis CMCC50041 (S. enteritidis CMCC50041, 24 hrs at 37° C., MH broth); 16 µg/mL in the data set on E. coli EPEC O78:K80 (E. coli EPEC O78:K80, 24 hrs at 37° C., MH broth); 8 µg/mL in the data set on P. aeruginosa CMCC27853 (P. aeruginosa CMCC27853, 24 hrs at 37° C., MH broth); 8 µg/mL in the data set with E. coli ATCC25922 (E. coli ATCC25922, 24 hrs at 37° C., MH broth); 8 µg/mL against S. aureus ATCC25923 (S. aureus ATCC25923, 24 hrs at 37° C., MH broth); 32 µg/mL in the data set on S. epidermidis ATCC12228 (S. epidermidis ATCC12228, 24 hrs at 37° C., MH broth). Moreover, the LDH releasing rate entry in data set [3] is recorded as “less than 10%”. The hemolysis ratio entry with porcine erythrocytes (peptide 512 μg/mL, 24 hrs at 37° C.) is listed as “less than 5%”.
